Tests used:
[1] = test system: syngeneic leukemia cells P388; assay: Syngeneic acute leukemia P388 in BDF1 mice, survival over 30 days; type: in vivo; conditions: for T (survival, days): single injection
Text: We have studied the effect of combined treatment with AFP+Dox of acute leukemia in mice BDF1 with transplanted intrapleurally syngeneic P388 leukemia cells. BDF-1 mice (84 male, 28 mice per treatment) were implanted with lethal dose of 12×10^6 syngeneic leukemia cells P388 in the pleural region. Animals were subjected to monotherapy with Dox and combined therapy with rhAFP/Dox upon simultaneous single injection of drugs in various doses. Animal survival was compared over 30 days.

[2] = test system: Human breast cancer cells MCF-7; assay: Combined treatment of MCF-7 cells with chemotherapeutic agents and rhAFP, MTT or H3-thymidine; type: cell-based; conditions: MCF-7, 72 hrs, agent with addition of 0.1 mg/ml of rhAFP, suboptimal doses, FIG. 8
Description: Cell proliferation was assessed by H3-thymidine incorporation assay or by MTT technique.
Human breast cancer cells MCF-7 were plated onto 96-well plastic wells (Costar) in 10^4 cells/ml in DMEM medium with addition of 2% fetal calf serum and were treated during 72 hrs with one of chemotherapeutic agents: doxorubicin, cysplatin, etoposide, metatrexate or those with addition of 0.1 mg/ml of rhAFP. Cytotoxic effect was estimated by MTT assay or H3-thymidine incorporation assay. It was observed synergistic enhance of the total tumor-suppressive effect in suboptimal doses of all agents in the presence of AFP (FIG. 8).

rhAFP = target: T1, rhAFP (Homo sapiens, UniProt P02771); assay: Formation of noncovalent complexes with rhAFP, absorption spectra and Sephadex G-25; type: binding; conditions: steady-state absorption; curcumin 30 μM, rhAFP 5 μM to 40 μM, FIG. 12A
T1 construct: pre-pro secretion region of yeast MFalpha1 (secretion leader, removed on secretory processing) (N, cleaved yes); made in house; host or cells: Saccharomyces cerevisiae YBS723/pKX (secreted into the culture liquid)
T1 sequence (P02771 20-609): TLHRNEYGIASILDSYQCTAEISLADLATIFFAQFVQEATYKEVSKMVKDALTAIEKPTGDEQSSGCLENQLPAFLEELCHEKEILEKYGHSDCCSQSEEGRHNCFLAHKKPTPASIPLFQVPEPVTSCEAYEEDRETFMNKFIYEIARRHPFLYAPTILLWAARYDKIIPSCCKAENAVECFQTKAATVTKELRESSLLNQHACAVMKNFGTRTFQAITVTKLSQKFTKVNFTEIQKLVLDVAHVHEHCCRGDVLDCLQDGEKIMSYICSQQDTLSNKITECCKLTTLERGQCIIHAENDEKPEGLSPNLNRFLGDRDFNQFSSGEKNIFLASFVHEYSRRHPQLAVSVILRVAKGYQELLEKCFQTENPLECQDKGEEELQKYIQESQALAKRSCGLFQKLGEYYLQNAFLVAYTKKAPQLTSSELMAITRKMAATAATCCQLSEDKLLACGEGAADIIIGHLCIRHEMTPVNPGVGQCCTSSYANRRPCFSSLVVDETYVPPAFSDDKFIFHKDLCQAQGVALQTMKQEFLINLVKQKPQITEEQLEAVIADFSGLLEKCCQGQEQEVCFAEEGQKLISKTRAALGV
Description: Absorption spectra of aqueous solutions containing 30 μM of curcumin and various doses of rhAFP: (1) 30 μM of curcumin; (2) 30 μM of curcumin+20 μM rhAFP; (3) 30 μM of curcumin+40 μM rhAFP. Panel at the top (A): absorption spectra of non-covalent complex of rhAFP/curcumin after chromatography through a column with Sephadex G-25.
Phytochemicals are nonnutritive components of plants that are currently being studies in chemoprevention and combined therapy of cancer. […] Other plant-derived tumoricidal compounds—flavonoids, isoflavonoids, flavons, flavanones, isoflavanones have been widely investigated for their ability to suppress tumor growth in vitro. Some of them display significant homology with steroids and mimic reveal antagonistic or agonistic activity in mammals. Ability of AFP to bind isoflavanoids was documented by various researches (Deutsch H. F, 1991, Adv. Canc. Res. 56, 253-312). […] The absorption spectra of solutions containing curcumin and rhAFP were followed keeping concentration of curcumin constant 30 μM and rhAFP varied from 5 μM to 40 μM. […] FIG. 12A gives the absorption spectral changes in curcumin in the presence of rhAFP in the wavelength range of 250-550 nm. […] Whereas after addition of rhAFP the maximum of absorbance of curcumin blue-shifted from 426 to 350 nm (curve 3). […]

tumor cells = assay: Combined administration of rhAFP and plant-derived compounds, suppression of tumor cell growth; type: cell-based; conditions: FIG. 12B, C
[3] = test system: cells of B-cellular lymphoma Raji; assay: Suppression of growth of Raji cells in vitro, [H3]-thymidine incorporation; type: cell-based, human; conditions: 12 hours with AFP, dose-dependent, FIG. 5
Description: The functional activity of rAFP and the modified forms thereof were determined according to its capability of suppressing the growth of cells of B-cellular lymphoma Raji in the culture in vitro, as earlier described (Semenkova, L. 1997, Tumor Biol. 18, 261-274; Dudich E. I., et al., 1998, Tumor Biol. 198, 30-40). Preliminarily washed by a fresh medium, Raji cells were placed into each cell of a 96-alverolar plate according to 5×10^3 in 0.1 ml of a medium RPMI-1640 in the presence of a 10% fetal calf serum, then different doses of AFP were added for 12 hours. Proliferation of the cells was measured by a standard method by the introduction of [H^3]-thymidine during the last 4 hours of culturing. For comparison, the dose-dependent reactivity was studies for two samples of AFP of embryonal origin embrAFP and yeast rAFP (FIG. 5). […] Similarly, in order to determine the activity to preparations on the base of AFP in vitro, any other lines of cancer cells may be used that are sensitive to the suppressive action of AFP, such as human hepatocarcinoma HepG2, breast cancer MCF-7, prostate cancer LnCap, myeloblastoma U-937 and others (Semenkova, L. 1997, Tumor Biol. 18, 261-274; Dudich E. I., et al., 1998, Tumor Biol. 198, 30-40).

**Q.** How did the “Survival more 30 days” value ([1]; Dox 3.0 mg/kg) turn out when COc1cccc2c1C(=O)c1c(O)c3c(c(O)c1C2=O)C[C@@](O)(C(=O)CO)C[C@@H]3O[C@H]1C[C@H](N)[C@H](O)[C@H](C)O1 [Dox, doxorubicin] was run?
**A.** 0

**Q.** What about the T/C % ([1]; Dox 3.0 mg/kg) of the same molecule?
**A.** 303%

**Q.** And the “T (survival, days)” value ([1]; Dox 3.0 mg/kg)?
**A.** [13.9/17.1] 19.7 days

**Q.** What about the “Survival more 30 days” value ([1]; Dox 5.0 mg/kg) of the same molecule?
**A.** 0

**Q.** What about the T/C % ([1]; Dox 5.0 mg/kg) of the same molecule?
**A.** 315%

**Q.** What about the “T (survival, days)” value ([1]; Dox 5.0 mg/kg) of the same molecule?
**A.** [17.0/22.4] 20.5 days

**Q.** And the “Survival more 30 days” value ([1]; Dox 1.o mg/kg)?
**A.** 0

**Q.** And the T/C % ([1]; Dox 1.o mg/kg)?
**A.** 238%

**Q.** What about the “T (survival, days)” value ([1]; Dox 1.o mg/kg) of the same molecule?
**A.** 6.5 [6.2/6.8] 15.5 days

**Q.** And the “total tumor-suppressive effect of agent together with rhAFP” value (from here on “total tumor-suppressive effect”) [2]?
**A.** significant synergistic tumor-suppression

**Q.** How did the “formation of noncovalent complexes with rhAFP” value (rhAFP) turn out when COc1cc(/C=C/C(=O)CC(=O)/C=C/c2ccc(O)c(OC)c2)ccc1O [curcumin] was run?
**A.** form noncovalent complexes

**Q.** What about the “total tumor suppressive effect upon combined treatment with rhAFP” value (tumor cells) of the same molecule?
**A.** significant enhance of the total tumor suppressive effect

**Q.** N.N.[Cl][Pt][Cl] [cysplatin] was tested. Which “total tumor-suppressive effect” value [2] did it give?
**A.** significant synergistic tumor-suppression

**Q.** COc1cc([C@@H]2c3cc4c(cc3[C@@H](O[C@@H]3O[C@@H]5CO[C@@H](C)O[C@H]5[C@H](O)[C@H]3O)[C@H]3COC(=O)[C@H]23)OCO4)cc(OC)c1O [etoposide] was tested. Which “total tumor-suppressive effect” value [2] did it give?
**A.** significant synergistic tumor-suppression

**Q.** What does the source list for O=c1c(-c2ccc(O)cc2)coc2cc(O[C@@H]3O[C@H](CO)[C@@H](O)[C@H](O)[C@H]3O)cc(O)c12 [genistin]?
**A.** formation of noncovalent complexes with rhAFP (rhAFP): form noncovalent complexes; total tumor suppressive effect upon combined treatment with rhAFP (tumor cells): significant enhance of the total tumor suppressive effect

**Q.** CN(Cc1cnc2nc(N)nc(N)c2n1)c1ccc(C(=O)N[C@@H](CCC(=O)O)C(=O)O)cc1 [metatrexate] was tested. Which “total tumor-suppressive effect” value [2] did it give?
**A.** significant synergistic tumor-suppression

B1: embrAFP: purified AFP of embryonal origin, obtained from embryonic serum (protein, UniProt P02771 19-609, looked up)
Alpha-fetoprotein: RTLHRNEYGIASILDSYQCTAEISLADLATIFFAQFVQEATYKEVSKMVKDALTAIEKPTGDEQSSGCLENQLPAFLEELCHEKEILEKYGHSDCCSQSEEGRHNCFLAHKKPTPASIPLFQVPEPVTSCEAYEEDRETFMNKFIYEIARRHPFLYAPTILLWAARYDKIIPSCCKAENAVECFQTKAATVTKELRESSLLNQHACAVMKNFGTRTFQAITVTKLSQKFTKVNFTEIQKLVLDVAHVHEHCCRGDVLDCLQDGEKIMSYICSQQDTLSNKITECCKLTTLERGQCIIHAENDEKPEGLSPNLNRFLGDRDFNQFSSGEKNIFLASFVHEYSRRHPQLAVSVILRVAKGYQELLEKCFQTENPLECQDKGEEELQKYIQESQALAKRSCGLFQKLGEYYLQNAFLVAYTKKAPQLTSSELMAITRKMAATAATCCQLSEDKLLACGEGAADIIIGHLCIRHEMTPVNPGVGQCCTSSYANRRPCFSSLVVDETYVPPAFSDDKFIFHKDLCQAQGVALQTMKQEFLINLVKQKPQITEEQLEAVIADFSGLLEKCCQGQEQEVCFAEEGQKLISKTRAALGV
**Q.** With B1 as the molecule, how does the “cytostatic activity, inhibition of growth of Raji cells” value [3] read?
**A.** expressed cytostatic activity

— patent US9931373B2, “Method of reducing cancer cell proliferation by administering recombinant alpha-fetoprotein” (priority 2005, dated 2018)
